The record followed here is article PMC3152630 (Pharmaceutical research, 2011).

The test deals with diabetic rats (blood glucose level, BGL). Kind of test: BGL pharmacodynamics after insulin administration to diabetic rats. It is filed as in vivo, rat. Conditions: bolus subcutaneous injection of 0.1 U insulin, unbalanced ANOVA, P < 0.001.

Take Insulin: the “reduction in BGL compared to untreated controls” value is “significant reduction in BGL”.
